Data on one compound can be found in patent US20180110762A1, “Compositions Methods for Treating Chronic Kidney Disease” (Merck Sharp & Dohme Corp, priority 2015, published 2018).

Assay [1] has as its target T1, Human recombinant integrin α5β1 (Homo sapiens, UniProt P05556+P08648).
T1 construct: purchased R&D Systems
Kind of assay: Solid phase receptor assay, α5β1 (fibronectin). The class given is binding. Here is the method: (§1) The assay was performed according to the method described in International Patent Publication WO 2014/015054 A1 “Beta Amino Acid Derivatives As Integrin Antagonists.” Briefly, 96-well plates were coated overnight with purified fibronectin or vitronectin (R&D Systems) in TBS+ buffer (25 mM Tris 7.4, 137 mM NaCl, 2.7 mM KCl, 1 mM CaCl2, 1 mM MgCl2, 1 mM MnCl2). Compound A was added at different concentrations to recombinant human integrin proteins (R&D Systems) reconstituted in TBS+/0.1% bovine serum albumin, and 50 μL of this mixture were added to the empty wells of the coated plate and incubated for 1-2 hours. After 3 washes, 50 μL of biotinylated antibody (R&D Systems) in TBS+/0.1% bovine serum albumin were added. The procedure continued with three more washes, addition of 50 μL of streptavidin-conjugated horseradish peroxidase (R&D Systems), and incubation for 20 minutes. After 3 more washes, 50 μL of tetramethylbenzidine (TMB) substrate (SIGMA) were added and plates were read after 20 min by colorimetric detection at 650 nm wavelength in an EnVision Multilabel Plate Reader (Perkin Elmer). The concentrations of fibronectin used were: 2 μg/mL for the α5β1 assay and 5 μg/mL for the αvβ1 assay. The concentrations of vitronectin used were: 1 μg/mL for the αvβ3 assay and 0.25 μg/mL for the αvβ5 assay. […]

The test system of the next assay is human podocytes. Kind of assay: Oris cell migration assay, PAN-induced podocyte motility, fibronectin coated plate. The following applies: 48 h; for % migrated cells vs control cells: FN plate. The class given is cell-based. Here is the method: The effects of Compound A on podocyte motility were evaluated using Oris cell migration assay kit in 96-well plates (coated with either vitronectin or fibronectin). The Oris™ Cell Migration Assay is designed with a unique cell seeding stopper or biocompatible gel, detection mask, and stopper tool. These unique plate designs generate highly reproducible results using a microscope, digital imaging system. 7 to 10-day differentiated human podocytes (100 ul of 50,000 cells/ml) were seeded in each well of the ORIS plate. After sitting at room temperature for about 15 minutes, the plate was placed into 37° C. incubator and podocytes were incubated with complete podocyte medium for 24 h. Stoppers from each well (keeping stoppers in 4 wells which were served as time zero control) were carefully removed, medium discarded, and fresh (10% FBS) podocyte medium added to each well. Podocytes were pretreated with Compound A (10 uM to 0.01 nM) for 2 h prior to puromycin animonucleoside (PAN, 30 ug/ml or 15 ug/ml) treatment. Podocytes were then treated with PAN in the presence or absence of Compound A at different concentrations (ranging from 10 uM to 0.01 nM) in 10% FBS medium for 48 h. Podocytes were then fixed with 4% paraformaldehyde in PBS for 30 minutes (adding 50 ul to each well). After discarding the fixative, podocytes were stained with Hoechst 33342 (stock […] working concentration at 5 uM) for 30 min. Podocytes were then washed with PBS three times. Finally, after adding 100 ul of PBS to each well, plate was sealed with a black cover and kept at 4° C. until image analysis. Images of podocyte motility were captured using Acumen eX3 (manufacturer TTP Labtech Ltd. address: Melbourn Science Park, Melbourn, Hertfordshire SG8 6EE, United Kingdom).
Effect of Compound A (“A”) on human podocyte motility was examined using Oris cell migration assay in fibronectin (FN) coated-96-well plate.

The target of assay [2] is T2, Human recombinant integrin αvβ1 (Homo sapiens, UniProt P05556+P06756).
T2 construct: purchased R&D Systems
T2 sequence (P06756 31-992 limits assumed): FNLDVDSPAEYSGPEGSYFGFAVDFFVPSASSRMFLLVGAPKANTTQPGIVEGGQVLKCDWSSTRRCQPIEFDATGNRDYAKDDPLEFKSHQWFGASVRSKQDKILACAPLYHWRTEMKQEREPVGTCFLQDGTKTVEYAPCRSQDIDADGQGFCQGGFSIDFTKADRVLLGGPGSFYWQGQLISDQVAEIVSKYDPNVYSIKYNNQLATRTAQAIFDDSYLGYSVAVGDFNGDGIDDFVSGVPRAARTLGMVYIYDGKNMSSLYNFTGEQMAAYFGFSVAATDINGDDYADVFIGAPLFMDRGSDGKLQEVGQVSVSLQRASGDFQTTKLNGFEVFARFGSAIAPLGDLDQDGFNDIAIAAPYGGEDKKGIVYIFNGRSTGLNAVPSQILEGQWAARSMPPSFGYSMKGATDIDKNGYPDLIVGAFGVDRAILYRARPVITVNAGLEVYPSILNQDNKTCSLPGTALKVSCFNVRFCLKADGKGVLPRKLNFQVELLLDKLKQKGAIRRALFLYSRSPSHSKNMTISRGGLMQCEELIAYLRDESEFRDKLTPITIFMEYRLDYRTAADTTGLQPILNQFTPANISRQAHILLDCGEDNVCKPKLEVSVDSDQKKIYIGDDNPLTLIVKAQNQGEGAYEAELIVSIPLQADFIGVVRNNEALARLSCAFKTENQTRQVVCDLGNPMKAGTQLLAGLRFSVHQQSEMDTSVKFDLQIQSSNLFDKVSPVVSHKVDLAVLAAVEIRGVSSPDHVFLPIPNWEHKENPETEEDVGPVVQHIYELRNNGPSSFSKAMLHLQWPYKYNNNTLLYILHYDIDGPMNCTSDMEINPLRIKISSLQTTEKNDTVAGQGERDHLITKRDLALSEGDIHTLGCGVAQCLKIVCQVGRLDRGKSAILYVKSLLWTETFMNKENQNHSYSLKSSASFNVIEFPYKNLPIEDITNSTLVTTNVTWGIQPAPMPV
T2 sequence (P05556 21-728 limits assumed): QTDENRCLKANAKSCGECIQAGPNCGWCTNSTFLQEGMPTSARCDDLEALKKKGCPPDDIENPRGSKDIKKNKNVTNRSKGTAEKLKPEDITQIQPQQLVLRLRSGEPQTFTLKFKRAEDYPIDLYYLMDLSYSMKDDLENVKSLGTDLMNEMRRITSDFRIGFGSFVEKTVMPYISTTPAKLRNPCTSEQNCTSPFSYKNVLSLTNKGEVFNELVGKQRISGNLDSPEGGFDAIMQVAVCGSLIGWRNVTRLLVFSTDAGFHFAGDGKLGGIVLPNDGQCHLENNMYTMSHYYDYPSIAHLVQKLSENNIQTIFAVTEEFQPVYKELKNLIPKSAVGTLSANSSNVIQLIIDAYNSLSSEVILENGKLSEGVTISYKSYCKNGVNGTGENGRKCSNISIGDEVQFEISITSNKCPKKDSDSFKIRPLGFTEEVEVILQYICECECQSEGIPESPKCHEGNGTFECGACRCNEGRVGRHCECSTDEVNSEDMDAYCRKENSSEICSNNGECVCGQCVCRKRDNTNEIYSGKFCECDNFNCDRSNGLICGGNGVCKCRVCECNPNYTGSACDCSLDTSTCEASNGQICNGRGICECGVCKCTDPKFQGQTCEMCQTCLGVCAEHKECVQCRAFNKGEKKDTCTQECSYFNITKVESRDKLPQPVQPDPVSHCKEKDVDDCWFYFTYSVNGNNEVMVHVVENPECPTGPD
Description: Solid phase receptor assay, αvβ1 (fibronectin). The assay is classed as binding. The procedure: as §1

T1 sequence (P08648 42-995 limits assumed): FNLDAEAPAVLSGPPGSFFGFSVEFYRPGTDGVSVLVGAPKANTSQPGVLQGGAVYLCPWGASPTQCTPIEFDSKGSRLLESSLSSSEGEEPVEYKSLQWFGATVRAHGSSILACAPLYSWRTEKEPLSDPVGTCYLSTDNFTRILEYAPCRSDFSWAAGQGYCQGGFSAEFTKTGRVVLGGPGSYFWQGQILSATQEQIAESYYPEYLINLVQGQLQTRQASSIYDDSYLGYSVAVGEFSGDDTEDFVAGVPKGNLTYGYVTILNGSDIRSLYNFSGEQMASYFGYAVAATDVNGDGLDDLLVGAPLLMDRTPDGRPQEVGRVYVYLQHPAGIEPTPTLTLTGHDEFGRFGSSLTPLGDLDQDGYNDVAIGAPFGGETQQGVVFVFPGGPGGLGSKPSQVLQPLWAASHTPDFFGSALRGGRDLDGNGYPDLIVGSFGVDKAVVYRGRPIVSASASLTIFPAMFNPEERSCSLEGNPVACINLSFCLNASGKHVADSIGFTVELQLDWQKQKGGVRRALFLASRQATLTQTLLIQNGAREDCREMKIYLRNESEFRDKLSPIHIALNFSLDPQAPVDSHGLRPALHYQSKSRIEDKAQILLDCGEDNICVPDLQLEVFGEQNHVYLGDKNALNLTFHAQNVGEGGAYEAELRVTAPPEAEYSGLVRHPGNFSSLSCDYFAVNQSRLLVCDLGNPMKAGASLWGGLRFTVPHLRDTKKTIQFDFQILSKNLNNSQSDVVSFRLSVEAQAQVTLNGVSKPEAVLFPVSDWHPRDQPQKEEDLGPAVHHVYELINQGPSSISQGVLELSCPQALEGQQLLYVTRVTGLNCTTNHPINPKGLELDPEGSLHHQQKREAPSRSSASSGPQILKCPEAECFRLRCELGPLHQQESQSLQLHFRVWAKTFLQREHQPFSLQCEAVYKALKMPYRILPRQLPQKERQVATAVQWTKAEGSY
T1 sequence (P05556 21-728 limits assumed): as the sequence (P05556 21-728 limits assumed) above

The term IC50 denotes the midpoint of a concentration-inhibition curve. Consider `COc1ccc([C@H](CC(=O)O)N2CCN(CCCc3ccc4c(n3)NCCC4)C2=O)cn1` [Compound A, 3-{2-Oxo-3-[3-(5,6,7,8-tetrahydro-[1,8]naphthyridin-2-yl)-propyl]imidazolidin-1-yl}-3 (S)-(6-methoxy-pyridin-3-yl)-propionic acid], for which the IC50 in assay [1] (α5β1, first of two experiments) was 4.9 nM; in assay [1] (α5β1, second of two experiments), 19.6 nM; in the assay with human podocytes (Homo sapiens, fibronectin coated plates, PAN 15 ug/ml, read-out: IC50, inhibition of puromycin-induced human podocyte motility) it was 1.12 nM; in assay [2] (αvβ1, first of two experiments), 2.1 nM; in assay [2] (αvβ1, second of two experiments), 0.9 nM. Also, the “% migrated cells vs control cells” value is listed as 76.3% in the assay on human podocytes (PAN 15 ug/ml + A 0.01 nM); 80.3% in the assay on human podocytes (PAN 15 ug/ml + A 0.0316 nM); 84.9% in the assay on human podocytes (PAN 15 ug/ml + A 0.1 nM); 83.6% in the assay on human podocytes (PAN 15 ug/ml + A 0.316 nM); 72.9% with human podocytes (PAN 15 ug/ml + A 1 nM); 64.8% in the assay on human podocytes (PAN 15 ug/ml + A 3.16 nM). In addition, the “% migrated cells vs control cells” value amounted to 54.1% with human podocytes (PAN 15 ug/ml + A 10 nM), 35.8% in the assay on human podocytes (PAN 15 ug/ml + A 100 nM), 36.3% in the assay on human podocytes (PAN 15 ug/ml + A 1 uM) and 33.1% in the assay with human podocytes (PAN 15 ug/ml + A 10 uM).
